Reference: PubChem BioAssay AID1963959 (Molecular Pharmacology Branch, DTP, NCI, 2024)

System: T-47D spheroids with HUVEC/MSC, viability
Assay: Anticancer human tumor T-47D cell line growth inhibition [PI3K];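 note: spheroids exposed to agents for seven days before reading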;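 for viability, T/C: percent of DMSO vehicle control luminescence so 100% = untreated growth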
Conditions: for IC50: curve of first compound; for viability, T/C: stronger effect = lower value
Summary of the method: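 Tumor cells grown as multi-cell spheroids with HUVEC endothelial cells and MSC fibroblast-like stroma were treated with targeted agents combined with inavolisib, alpelisib, duvelisib or copanlisib. Doses fell in half-log steps from near clinical Cmax, else from 10 microM. Viability was measured.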

[1] = second compound 0.0316 µM, first compound 0.0316 µM
[2] = second compound 0.0316 µM, first compound 0.1 µM
[3] = second compound 0.0316 µM, first compound 0.316 µM
[4] = second compound 0.0316 µM, first compound 1 µM
[5] = second compound 0.1 µM, first compound 0.0316 µM
[6] = second compound 0.1 µM, first compound 0.1 µM
[7] = second compound 0.1 µM, first compound 0.316 µM
[8] = second compound 0.1 µM, first compound 1 µM
[9] = second compound 0.316 µM, first compound 0.0316 µM
[10] = second compound 0.316 µM, first compound 0.1 µM
[11] = second compound 0.316 µM, first compound 0.316 µM
[12] = second compound 0.316 µM, first compound 1 µM
[13] = second compound 1 µM, first compound 0.0316 µM
[14] = second compound 1 µM, first compound 0.1 µM
[15] = second compound 1 µM, first compound 0.316 µM
[16] = second compound 1 µM, first compound 1 µM

In the case of `C[C@@H](NC(=O)c1ncnc(N)c1Cl)c1ncc(C(=O)Nc2cc(C(F)(F)F)c(Cl)cn2)s1` + CC(Nc1ncnc2nc[nH]c12)c1cc2cccc(Cl)c2c(=O)n1-c1ccccc1, the IC50 (second compound 0.0316 µM) is reported as greater than 10000 nM, the IC50 (second compound 0.1 µM) is reported as greater than 10000 nM and the IC50 (second compound 0.316 µM) is reported as greater than 10000 nM. It also gave an IC50 (second compound 1 µM) greater than 10000 nM, an IC50 (second compound 3.16 µM) greater than 10000 nM and an IC50 (second compound 10 µM) greater than 10000 nM. The viability, T/C [1] was 75.3%, the viability, T/C [2] was 88.3% and the viability, T/C [3] was 83.8%. It also gave a viability, T/C [4] of 89.1%, a viability, T/C (second compound 0.0316 µM, first compound 3.16 µM) of 108% and a viability, T/C (second compound 0.0316 µM, first compound 10 µM) of 92.5%. For the same compound, the viability, T/C [5] was 106%, the viability, T/C [6] was 90.2% and the viability, T/C [7] was 86%. It also gave a viability, T/C [8] of 84.3%, a viability, T/C (second compound 0.1 µM, first compound 3.16 µM) of 89.9% and a viability, T/C (second compound 0.1 µM, first compound 10 µM) of 90.9%. For the same compound, the viability, T/C [9] was 94.8%, the viability, T/C [10] was 93.2% and the viability, T/C [11] was 90.3%. The viability, T/C [12] was 84%, the viability, T/C (second compound 0.316 µM, first compound 3.16 µM) was 84.7% and the viability, T/C (second compound 0.316 µM, first compound 10 µM) was 100%. The viability, T/C [13] was 80.2%, the viability, T/C [14] was 105% and the viability, T/C [15] was 80.9%. The viability, T/C [16] was 89.2%, the viability, T/C (second compound 1 µM, first compound 3.16 µM) was 85.8% and the viability, T/C (second compound 1 µM, first compound 10 µM) was 90%. It also gave a viability, T/C (second compound 3.16 µM, first compound 0.0316 µM) of 72.2%, a viability, T/C (second compound 3.16 µM, first compound 0.1 µM) of 91.2% and a viability, T/C (second compound 3.16 µM, first compound 0.316 µM) of 97.4%. For the same compound, the viability, T/C (second compound 3.16 µM, first compound 1 µM) was 98.8%, the viability, T/C (second compound 3.16 µM, first compound 3.16 µM) was 82% and the viability, T/C (second compound 3.16 µM, first compound 10 µM) was 80.7%. For the same compound, the viability, T/C (second compound 10 µM, first compound 0.0316 µM) was 105%, the viability, T/C (second compound 10 µM, first compound 0.1 µM) was 82.1% and the viability, T/C (second compound 10 µM, first compound 0.316 µM) was 103%. The viability, T/C (second compound 10 µM, first compound 1 µM) was 84.1%, the viability, T/C (second compound 10 µM, first compound 3.16 µM) was 86.3% and the viability, T/C (second compound 10 µM, first compound 10 µM) was 88.8%.
`CCN1CCN(Cc2ccc(Nc3ncc(F)c(-c4cc(F)c5nc(C)n(C(C)C)c5c4)n3)nc2)CC1` + COc1c(OCCCN2CCOCC2)ccc2c3n(c(=NC(=O)c4cnc(N)nc4)nc12)CCN3 was tested, and the IC50 (second compound 0.00316 µM) was greater than 1000 nM, the IC50 (second compound 0.01 µM) was greater than 1000 nM and the IC50 (second compound 0.0316 µM) was 8.3 nM. It also gave an IC50 (second compound 0.1 µM) of less than 3.16 nM, an IC50 (second compound 0.316 µM) of less than 3.16 nM and an IC50 (second compound 1 µM) of less than 3.16 nM. It also gave a viability, T/C (second compound 0.00316 µM, first compound 0.00316 µM) of 81.5%, a viability, T/C (second compound 0.00316 µM, first compound 0.01 µM) of 77.9% and a viability, T/C (second compound 0.00316 µM, first compound 0.0316 µM) of 83.2%. It also gave a viability, T/C (second compound 0.00316 µM, first compound 0.1 µM) of 74.8%, a viability, T/C (second compound 0.00316 µM, first compound 0.316 µM) of 73.2% and a viability, T/C (second compound 0.00316 µM, first compound 1 µM) of 88.6%. It also gave a viability, T/C (second compound 0.01 µM, first compound 0.00316 µM) of 99.1%, a viability, T/C (second compound 0.01 µM, first compound 0.01 µM) of 75.3% and a viability, T/C (second compound 0.01 µM, first compound 0.0316 µM) of 70.5%. The viability, T/C (second compound 0.01 µM, first compound 0.1 µM) was 71.5%, the viability, T/C (second compound 0.01 µM, first compound 0.316 µM) was 67.6% and the viability, T/C (second compound 0.01 µM, first compound 1 µM) was 72.5%. It also gave a viability, T/C (second compound 0.0316 µM, first compound 0.00316 µM) of 64%, a viability, T/C (second compound 0.0316 µM, first compound 0.01 µM) of 47.8% and a viability, T/C [1] of 41.2%. The viability, T/C [2] was 43.4%, the viability, T/C [3] was 44.6% and the viability, T/C [4] was 56.5%. It also gave a viability, T/C (second compound 0.1 µM, first compound 0.00316 µM) of 41.3%, a viability, T/C (second compound 0.1 µM, first compound 0.01 µM) of 25.1% and a viability, T/C [5] of 27.7%. The viability, T/C [6] was 24.4%, the viability, T/C [7] was 29% and the viability, T/C [8] was 45.3%. For the same compound, the viability, T/C (second compound 0.316 µM, first compound 0.00316 µM) was 13%, the viability, T/C (second compound 0.316 µM, first compound 0.01 µM) was 12.3% and the viability, T/C [9] was 14.8%. For the same compound, the viability, T/C [10] was 16.3%, the viability, T/C [11] was 23.4% and the viability, T/C [12] was 34.4%. For the same compound, the viability, T/C (second compound 1 µM, first compound 0.00316 µM) was 6.17%, the viability, T/C (second compound 1 µM, first compound 0.01 µM) was 5.48% and the viability, T/C [13] was 7.16%. For the same compound, the viability, T/C [14] was 6.14%, the viability, T/C [15] was 12.2% and the viability, T/C [16] was 24.2%.
